Measurements taken from ChEMBL document CHEMBL4321812, “Structure-based rational design of staurosporine-based fluorescent probe with broad-ranging kinase affinity for kinase panel application” (Bioorg Med Chem Lett, 2019).

Key:
[1] = biological target: Serine/threonine-protein kinase MARK1 (Homo sapiens, UniProt Q9P0L2); assay: Binding affinity to recombinant full-length N-terminal His-FLAG-tagged MARK1 (unknown origin) expressed in baculovirus infected Sf9 insect cells incubated for 1 hr by TR-FRET assay
[2] = biological target: Glycogen synthase kinase-3 beta (Homo sapiens, UniProt P49841); assay: Binding affinity to recombinant full-length N-terminal His-FLAG-GST-tagged GSK3B (unknown origin) expressed in baculovirus infected Sf9 insect cells incubated for 1 hr by TR-FRET assay
Glycogen synthase kinase-3 beta, sequence (P49841 whole entry): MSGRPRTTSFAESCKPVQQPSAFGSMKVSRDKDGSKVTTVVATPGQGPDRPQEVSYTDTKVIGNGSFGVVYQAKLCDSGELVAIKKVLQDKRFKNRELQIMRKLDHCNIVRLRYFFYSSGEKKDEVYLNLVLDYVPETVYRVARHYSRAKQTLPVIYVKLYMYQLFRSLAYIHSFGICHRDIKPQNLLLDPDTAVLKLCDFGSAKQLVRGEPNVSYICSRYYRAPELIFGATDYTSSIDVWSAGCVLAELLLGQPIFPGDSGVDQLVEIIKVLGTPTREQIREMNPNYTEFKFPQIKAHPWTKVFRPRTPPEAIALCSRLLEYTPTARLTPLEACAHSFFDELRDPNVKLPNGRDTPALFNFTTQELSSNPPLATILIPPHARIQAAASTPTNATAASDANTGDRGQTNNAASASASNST

[3] = biological target: Serine/threonine-protein kinase SIK1 (Homo sapiens, UniProt P57059); assay: Binding affinity to recombinant full-length N-terminal His-FLAG-tagged SIK1 (unknown origin) expressed in baculovirus infected Sf9 insect cells incubated for 1 hr by TR-FRET assay
[4] = biological target: 3-phosphoinositide-dependent protein kinase 1 (Homo sapiens, UniProt O15530); assay: Binding affinity to recombinant full-length N-terminal His-FLAG-GST-tagged PDPK1 (unknown origin) expressed in baculovirus infected Sf9 insect cells incubated for 1 hr by TR-FRET assay
3-phosphoinositide-dependent protein kinase 1, sequence (O15530 whole entry, the tested form may be a part): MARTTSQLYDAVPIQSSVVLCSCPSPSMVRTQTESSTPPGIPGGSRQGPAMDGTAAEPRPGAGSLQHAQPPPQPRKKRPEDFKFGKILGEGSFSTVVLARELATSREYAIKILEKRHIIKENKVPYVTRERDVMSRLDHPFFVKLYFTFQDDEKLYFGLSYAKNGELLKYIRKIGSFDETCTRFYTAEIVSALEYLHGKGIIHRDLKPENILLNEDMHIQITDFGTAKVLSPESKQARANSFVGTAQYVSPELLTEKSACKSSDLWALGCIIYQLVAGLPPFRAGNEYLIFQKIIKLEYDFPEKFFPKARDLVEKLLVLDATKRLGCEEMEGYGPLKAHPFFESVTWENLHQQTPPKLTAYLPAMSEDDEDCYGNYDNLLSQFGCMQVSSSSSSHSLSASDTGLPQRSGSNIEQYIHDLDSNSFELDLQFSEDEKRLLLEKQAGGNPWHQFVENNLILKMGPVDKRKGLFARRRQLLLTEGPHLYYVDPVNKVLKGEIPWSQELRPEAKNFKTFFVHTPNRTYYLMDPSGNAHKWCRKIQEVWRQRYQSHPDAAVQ

[5] = biological target: Non-receptor tyrosine-protein kinase TNK1 (Homo sapiens, UniProt Q13470); assay: Binding affinity to recombinant human N-terminal GST-tagged TNK1 (106 to 390 residues) expressed in baculovirus expression system using CSKtide as substrate incubated for 1 hr by TR-FRET assay
[6] = biological target: Serine/threonine-protein kinase ULK2 (Homo sapiens, UniProt Q8IYT8); assay: Binding affinity to recombinant N-terminal His-FLAG-GST-tagged ULK2 (unknown origin) (1 to 478 residues) expressed in baculovirus infected Sf9 insect cells incubated for 1 hr by TR-FRET assay
[7] = biological target: Dual specificity mitogen-activated protein kinase kinase 1 (Homo sapiens, UniProt Q02750); assay: Binding affinity to recombinant full-length N-terminal His-FLAG-tagged MAP2K1 (unknown origin) expressed in baculovirus infected Sf9 insect cells incubated for 1 hr by TR-FRET assay
Dual specificity mitogen-activated protein kinase kinase 1, sequence (Q02750 whole entry, the tested form may be a part): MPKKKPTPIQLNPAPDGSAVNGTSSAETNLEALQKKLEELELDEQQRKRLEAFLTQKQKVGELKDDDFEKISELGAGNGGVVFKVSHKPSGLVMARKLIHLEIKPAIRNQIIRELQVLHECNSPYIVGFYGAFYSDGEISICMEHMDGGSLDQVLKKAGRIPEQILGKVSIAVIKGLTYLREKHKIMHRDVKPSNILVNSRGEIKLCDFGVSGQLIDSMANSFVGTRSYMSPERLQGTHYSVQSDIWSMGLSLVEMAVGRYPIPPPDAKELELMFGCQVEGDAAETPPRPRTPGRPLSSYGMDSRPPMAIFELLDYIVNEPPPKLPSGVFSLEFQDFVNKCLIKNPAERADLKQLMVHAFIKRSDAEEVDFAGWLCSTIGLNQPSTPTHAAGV

[8] = biological target: Tyrosine-protein kinase Mer (Homo sapiens, UniProt Q12866); assay: Binding affinity to recombinant full-length N-terminal His-FLAG-GST-tagged MERTK (unknown origin) (528 to 999 residues) expressed in baculovirus infected Sf9 insect cells incubated for 1 hr by TR-FRET assay
Tyrosine-protein kinase Mer, sequence (Q12866 whole entry, the tested form may be a part): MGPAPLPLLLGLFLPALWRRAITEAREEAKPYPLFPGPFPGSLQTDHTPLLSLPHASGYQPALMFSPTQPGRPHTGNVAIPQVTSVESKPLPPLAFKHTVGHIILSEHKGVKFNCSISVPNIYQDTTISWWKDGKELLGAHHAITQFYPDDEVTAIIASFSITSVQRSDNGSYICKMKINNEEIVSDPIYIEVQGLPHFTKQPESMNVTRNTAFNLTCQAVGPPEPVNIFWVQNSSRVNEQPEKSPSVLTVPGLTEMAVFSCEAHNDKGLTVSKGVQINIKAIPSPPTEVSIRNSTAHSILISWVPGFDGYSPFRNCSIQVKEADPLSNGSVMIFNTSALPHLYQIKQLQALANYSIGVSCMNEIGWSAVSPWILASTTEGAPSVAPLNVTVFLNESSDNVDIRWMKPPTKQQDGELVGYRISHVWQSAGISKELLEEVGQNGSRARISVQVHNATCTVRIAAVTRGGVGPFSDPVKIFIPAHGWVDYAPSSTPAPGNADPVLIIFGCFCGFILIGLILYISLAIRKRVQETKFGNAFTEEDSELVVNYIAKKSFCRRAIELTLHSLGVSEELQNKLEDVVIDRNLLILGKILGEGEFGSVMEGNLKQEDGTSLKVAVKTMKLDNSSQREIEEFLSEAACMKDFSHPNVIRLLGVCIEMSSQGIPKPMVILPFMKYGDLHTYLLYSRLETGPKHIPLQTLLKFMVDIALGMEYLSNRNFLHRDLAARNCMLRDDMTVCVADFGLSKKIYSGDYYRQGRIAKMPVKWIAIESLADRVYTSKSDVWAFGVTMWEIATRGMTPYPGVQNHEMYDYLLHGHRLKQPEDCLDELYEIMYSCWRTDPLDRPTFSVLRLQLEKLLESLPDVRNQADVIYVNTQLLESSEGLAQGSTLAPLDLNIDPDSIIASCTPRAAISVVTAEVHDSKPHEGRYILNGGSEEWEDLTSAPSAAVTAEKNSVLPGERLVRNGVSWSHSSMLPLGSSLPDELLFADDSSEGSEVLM

[9] = biological target: Hepatocyte growth factor receptor (Homo sapiens, UniProt P08581); assay: Binding affinity to recombinant full-length N-terminal His-FLAG-GST-tagged MET (unknown origin) (956 to 1390 residues) expressed in baculovirus infected Sf9 insect cells incubated for 1 hr by TR-FRET assay
[10] = biological target: Tyrosine-protein kinase CSK (Homo sapiens, UniProt P41240); assay: Binding affinity to recombinant full-length N-terminal His-FLAG-tagged CSK (unknown origin) expressed in baculovirus infected Sf9 insect cells incubated for 1 hr by TR-FRET assay
LIM domain kinase 1 = LIM domain kinase 1 (Homo sapiens, UniProt P53667); assay: Binding affinity to truncated human N-terminal GST-tagged LIMK1 (285 to 638 residues) expressed in baculovirus expression system using cofilin2 as substrate incubated for 1 hr by TR-FRET assay
[11] = biological target: Tyrosine-protein kinase Tec (Homo sapiens, UniProt P42680); assay: Binding affinity to recombinant human N-terminal GST-tagged TEC (359 to 631 residues) expressed in baculovirus expression system using Srctide as substrate incubated for 1 hr by TR-FRET assay
[12] = biological target: Ribosomal protein S6 kinase alpha-3 (Homo sapiens, UniProt P51812); assay: Binding affinity to recombinant human full length N-terminal GST-tagged RPS6KA3 expressed in baculovirus expression system using S6K peptide as substrate incubated for 1 hr by TR-FRET assay
[13] = biological target: Vascular endothelial growth factor receptor 3 (Homo sapiens, UniProt P35916); assay: Binding affinity to recombinant N-terminal His-FLAG-GST-tagged FLT4 (unknown origin) (798 to 1298 residues) expressed in baculovirus infected Sf9 insect cells incubated for 1 hr by TR-FRET assay
Vascular endothelial growth factor receptor 3, sequence (P35916 whole entry, the tested form may be a part): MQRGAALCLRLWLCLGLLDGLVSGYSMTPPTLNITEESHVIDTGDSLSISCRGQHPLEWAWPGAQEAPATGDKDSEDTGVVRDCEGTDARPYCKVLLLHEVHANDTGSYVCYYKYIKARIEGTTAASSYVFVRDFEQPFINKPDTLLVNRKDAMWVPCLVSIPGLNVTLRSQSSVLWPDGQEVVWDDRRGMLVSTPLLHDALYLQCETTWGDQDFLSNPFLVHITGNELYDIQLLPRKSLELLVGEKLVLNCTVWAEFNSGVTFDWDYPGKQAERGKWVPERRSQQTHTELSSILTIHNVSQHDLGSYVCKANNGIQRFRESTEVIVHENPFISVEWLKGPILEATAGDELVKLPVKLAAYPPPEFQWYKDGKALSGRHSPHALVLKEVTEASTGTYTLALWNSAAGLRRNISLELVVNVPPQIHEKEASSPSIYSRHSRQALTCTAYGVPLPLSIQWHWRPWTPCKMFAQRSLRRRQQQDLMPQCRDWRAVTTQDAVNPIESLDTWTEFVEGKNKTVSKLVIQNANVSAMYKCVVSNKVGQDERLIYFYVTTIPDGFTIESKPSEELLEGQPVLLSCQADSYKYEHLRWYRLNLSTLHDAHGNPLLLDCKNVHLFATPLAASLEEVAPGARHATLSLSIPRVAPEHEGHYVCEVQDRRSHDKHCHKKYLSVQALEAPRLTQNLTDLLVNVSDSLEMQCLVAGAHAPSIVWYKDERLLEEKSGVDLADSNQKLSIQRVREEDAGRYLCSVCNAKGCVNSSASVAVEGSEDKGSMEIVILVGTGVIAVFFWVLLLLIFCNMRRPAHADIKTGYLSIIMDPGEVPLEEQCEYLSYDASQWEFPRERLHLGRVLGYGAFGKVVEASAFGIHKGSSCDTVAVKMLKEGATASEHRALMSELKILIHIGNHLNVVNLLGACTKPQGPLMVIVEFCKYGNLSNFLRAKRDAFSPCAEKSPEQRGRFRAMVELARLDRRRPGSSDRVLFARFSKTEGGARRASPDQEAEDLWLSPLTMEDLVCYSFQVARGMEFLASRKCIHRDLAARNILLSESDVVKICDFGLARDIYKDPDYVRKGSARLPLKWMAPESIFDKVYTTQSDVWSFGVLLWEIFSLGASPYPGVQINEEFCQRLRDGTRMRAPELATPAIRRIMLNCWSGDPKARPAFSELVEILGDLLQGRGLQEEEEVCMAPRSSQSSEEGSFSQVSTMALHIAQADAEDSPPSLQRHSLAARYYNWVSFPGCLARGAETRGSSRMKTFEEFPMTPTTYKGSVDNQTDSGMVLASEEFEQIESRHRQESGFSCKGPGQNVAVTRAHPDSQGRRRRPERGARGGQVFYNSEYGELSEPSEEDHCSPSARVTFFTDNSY

Angiopoietin-1 receptor = Angiopoietin-1 receptor (Homo sapiens, UniProt Q02763); assay: Binding affinity to recombinant full-length N-terminal His-FLAG-GST-tagged TEK (unknown origin) (771 to 1124 residues) expressed in baculovirus infected Sf9 insect cells incubated for 1 hr by TR-FRET assay
[14] = biological target: Serine/threonine-protein kinase 33 (Homo sapiens, UniProt Q9BYT3); assay: Binding affinity to recombinant full-length N-terminal His-FLAG-GST-tagged STK33 (unknown origin) expressed in baculovirus infected Sf9 insect cells incubated for 1 hr by TR-FRET assay
[15] = biological target: Serine/threonine-protein kinase 4 (Homo sapiens, UniProt Q13043); assay: Binding affinity to recombinant full-length N-terminal His-FLAG-GST-tagged STK4 (unknown origin) expressed in baculovirus infected Sf9 insect cells incubated for 1 hr by TR-FRET assay
[16] = biological target: cGMP-dependent protein kinase 1 (Homo sapiens, UniProt Q13976); assay: Binding affinity to recombinant full-length N-terminal His-FLAG-tagged PRKG1 (unknown origin) expressed in baculovirus infected Sf9 insect cells incubated for 1 hr by TR-FRET assay
[17] = biological target: Dual specificity mitogen-activated protein kinase kinase 7 (Homo sapiens, UniProt O14733); assay: Binding affinity to recombinant human full-length N-terminal GST-tagged MAP2K7 (1 to 419 residues) expressed in baculovirus expression system using JNK2 as substrate incubated for 1 hr by TR-FRET assay
[18] = biological target: Serine/threonine-protein kinase PAK 4 (Homo sapiens, UniProt O96013); assay: Binding affinity to recombinant human full-length N-terminal GST-tagged PAK4 expressed in baculovirus expression system using SGKtide as substrate incubated for 1 hr by TR-FRET assay
Serine/threonine-protein kinase PAK 4, sequence (O96013 whole entry): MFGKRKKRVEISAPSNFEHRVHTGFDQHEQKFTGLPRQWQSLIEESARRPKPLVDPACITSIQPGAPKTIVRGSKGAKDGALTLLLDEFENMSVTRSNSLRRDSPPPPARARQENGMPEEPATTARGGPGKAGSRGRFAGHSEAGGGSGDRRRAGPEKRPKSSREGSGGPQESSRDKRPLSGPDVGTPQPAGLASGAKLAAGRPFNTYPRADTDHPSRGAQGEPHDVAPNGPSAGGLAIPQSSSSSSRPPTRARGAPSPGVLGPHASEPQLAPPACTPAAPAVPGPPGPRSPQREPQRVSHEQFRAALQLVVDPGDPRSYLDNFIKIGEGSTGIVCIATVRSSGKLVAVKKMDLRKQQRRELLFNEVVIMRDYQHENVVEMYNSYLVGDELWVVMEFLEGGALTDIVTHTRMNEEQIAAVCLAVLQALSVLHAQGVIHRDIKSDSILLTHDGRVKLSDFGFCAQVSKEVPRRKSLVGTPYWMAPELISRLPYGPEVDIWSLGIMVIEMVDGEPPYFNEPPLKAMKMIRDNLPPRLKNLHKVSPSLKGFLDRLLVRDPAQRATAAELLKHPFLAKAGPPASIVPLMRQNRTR

[19] = biological target: Dual specificity tyrosine-phosphorylation-regulated kinase 1A (Homo sapiens, UniProt Q13627); assay: Binding affinity to recombinant full-length N-terminal His-FLAG-GST-tagged DYRK1A (unknown origin) expressed in baculovirus infected Sf9 insect cells incubated for 1 hr by TR-FRET assay
[20] = biological target: Calcium/calmodulin-dependent protein kinase kinase 2 (Homo sapiens, UniProt Q96RR4); assay: Binding affinity to recombinant full-length N-terminal His-FLAG-GST-tagged CAMKK2 (unknown origin) expressed in baculovirus infected Sf9 insect cells incubated for 1 hr in presence of calmodulin by TR-FRET assay
[21] = biological target: Serine/threonine-protein kinase pim-1 (Homo sapiens, UniProt P11309); assay: Binding affinity to recombinant human full-length N-terminal his-tagged PIM1 expressed in baculovirus expression system using S6K2 peptide as substrate incubated for 1 hr by TR-FRET assay
[22] = biological target: Ribosomal protein S6 kinase alpha-1 (Homo sapiens, UniProt Q15418); assay: Binding affinity to recombinant full length human N-terminal GST-tagged RPS6KA1 expressed in baculovirus expression system using S6K peptide as substrate incubated for 1 hr by TR-FRET assay
Ribosomal protein S6 kinase alpha-1, sequence (Q15418 whole entry): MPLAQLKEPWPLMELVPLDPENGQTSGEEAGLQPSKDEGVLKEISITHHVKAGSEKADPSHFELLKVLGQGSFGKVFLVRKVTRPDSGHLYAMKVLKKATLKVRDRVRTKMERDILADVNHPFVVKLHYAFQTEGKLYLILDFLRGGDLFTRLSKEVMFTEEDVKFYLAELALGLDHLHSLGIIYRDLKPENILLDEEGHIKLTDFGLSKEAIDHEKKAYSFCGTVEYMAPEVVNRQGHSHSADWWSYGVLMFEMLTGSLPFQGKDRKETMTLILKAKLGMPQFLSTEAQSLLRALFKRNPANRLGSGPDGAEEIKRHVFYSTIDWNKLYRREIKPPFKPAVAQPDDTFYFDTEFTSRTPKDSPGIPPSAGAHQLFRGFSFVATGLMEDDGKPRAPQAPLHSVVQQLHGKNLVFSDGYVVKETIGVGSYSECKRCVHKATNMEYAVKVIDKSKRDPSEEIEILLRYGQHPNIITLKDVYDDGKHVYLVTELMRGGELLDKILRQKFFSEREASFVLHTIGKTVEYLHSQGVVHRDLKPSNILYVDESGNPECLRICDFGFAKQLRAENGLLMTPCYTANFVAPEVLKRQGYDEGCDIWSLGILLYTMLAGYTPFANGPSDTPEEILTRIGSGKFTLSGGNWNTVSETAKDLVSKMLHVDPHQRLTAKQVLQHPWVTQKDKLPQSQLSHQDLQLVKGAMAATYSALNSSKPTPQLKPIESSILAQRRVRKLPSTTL

[23] = biological target: Serine/threonine-protein kinase Chk1 (Homo sapiens, UniProt O14757); assay: Binding affinity to recombinant human full-length N-terminal His-tagged CHEK1 expressed in baculovirus expression system using CHKtide as substrate incubated for 1 hr by TR-FRET assay

| Structure (SMILES) | Kd [1] [nM] | Kd [2] [nM] | Kd [3] [nM] | Kd [4] [nM] | Kd [5] [nM] | Kd [6] [nM] | Kd [7] [nM] | Kd [8] [nM] | Kd [9] [nM] | Kd [10] [nM] | Kd (LIM domain kinase 1) [nM] | Kd [11] [nM] | Kd [12] [nM] | Kd [13] [nM] | Kd (Angiopoietin-1 receptor) [nM] | Kd [14] [nM] | Kd [15] [nM] | Kd [16] [nM] | Kd [18] [nM] | Kd [19] [nM] | also measured |
| --- | --- | --- | --- | --- | --- | --- | --- | --- | --- | --- | --- | --- | --- | --- | --- | --- | --- | --- | --- | --- | --- |
| CO[C@@H]1[C@H](NCCOCCOCCOCCNC(=O)CCC2=[N+]3C(=Cc4c(C)cc(C)n4[B-]3(F)F)C=C2)C[C@H]2O[C@]1(C)n1c3ccccc3c3c4c(c5c6ccccc6n2c5c31)C(=O)NC4 | 9 | 230 | 3 | 8 | 4 | 30 | 328 | 107 | 930 | 879 | 6 | 1060 | 4 | 61 | 395 | 8 | 7 | 109 | 5 | 138 | Kd [17]: 293 nM; Kd [20]: 2 nM; Kd [21]: 207 nM; Kd [22]: 16 nM; Kd [23]: 20 nM |
| CO[C@@H]1[C@H](N(C)CCOCCOCCOCCNC(=O)CCC2=[N+]3C(=Cc4c(C)cc(C)n4[B-]3(F)F)C=C2)C[C@H]2O[C@]1(C)n1c3ccccc3c3c4c(c5c6ccccc6n2c5c31)C(=O)NC4 | 3 | 148 | 3 | 8 | 13 | 61 | 428 | 108 | 812 | 1010 | 32 | 1460 | 2 | 78 | 408 | 6 | 4 | 85 | 6 | 102 | Kd [20]: 6 nM; Kd [21]: 285 nM; Kd [22]: 36 nM |
